Experimental data taken from patent EP4011354A1, “NEW COSMETICS SOLVENTS BASED ON TWO DIFFERENT COMPONENTS” (priority 2020, dated 2022).
Values after ≈ are worked out from the molar mass of the structure shown. Where two headings read alike, the source gives them in different places. Each block holds one compound with its values, some of them ahead of it.

Columns and labels:
[1] = Solubility of actives in water and in eutectic solvents; assay type: physicochemical; settings: for solubility: water
Source text: Following is shown some examples for actives solubilization: • Dihydromyricetin • ∘ Solubility in Water 0.09% wt. • ∘ Solubility in Betaine:Urea 2:3 > 0.5% wt • ∘ Solubility in Betaine:Glucose 1:1 > 0.5% wt • ∘ Solubility in Betaine:Malic Acid 1:1 > 0.5% wt • ∘ Solubility in Proline:Sorbitol 1:1 > 0.5% wt • ∘ • Folic Acid • ∘ Solubility in Water 0.00016% wt. • ∘ Solubility in Betaine:Glycerol 1:3 > 1% wt • Thiamidol • ∘ Solubility in Water 0.017% wt. • ∘ Solubility in Betaine:Glycerol 1:3 > 2% wt

[2] = In vivo sweat reduction test; settings: Betaine-Glycerine (molar ratios 1:3), 10,5 wt.% calcium lactate, 37,5 wt.% water (figure 2)
[3] = Stability of 5 % vitamin C solutions in eutectic solvents versus water; assay type: physicochemical; settings: 40 degrees, after 16 weeks
[4] = Liberation of actives and dermal penetration (pig-skin penetration test); settings: 0,5% solution in betaine : malic acid (1:1 + 20% water; NADES)
Experimental: Actives liberation and dermal penetration behavior were evaluated for a 0,5% caffeine solution in an inventive eutectic solvent, betaine : malic acid (1:1 + 20% water; NADES).

SMILES: CC(O)C(=O)O (centres unmarked) [calcium lactate]
sweat reduction [2]: sweat reduction

SMILES: Cn1c(=O)c2c(ncn2C)n(C)c1=O [caffeine]
dermal absorption ([4]; compared to the water solution): lower
liberation over time ([4]; compared to the water solution (figure 4)): surprisingly lower

SMILES: O=C1c2c(O)cc(O)cc2O[C@H](c2cc(O)c(O)c(O)c2)[C@H]1O [Dihydromyricetin]
Solubility in Betaine:Glucose 1:1 [1]: > 0.5 % wt
Solubility in Betaine:Malic Acid 1:1 [1]: > 0.5 % wt
Solubility in Betaine:Urea 2:3 [1]: > 0.5 % wt
Solubility in Proline:Sorbitol 1:1 [1]: > 0.5 % wt
solubility [1]: 900 µg/mL (≈ 2810 µM)

The next lines start with the values.

Solubility in Betaine:Glycerol 1:3 [1]: > 2 % wt
solubility ([1]; read-out: Solubility in Water): 170 µg/mL (≈ 611 µM)
SMILES: CC(C)C(=O)Nc1nc(-c2ccc(O)cc2O)cs1 [Thiamidol, Isobutylamido Thiazolyl Resorcinol]

remaining at 2688 h ([3]; in the eutectic solvents (table 1, B-F), read-out: active still intact): ≤ 82%
remaining at 2688 h ([3]; water, aqueous solution, read-out: initial vitamin C still measurable): 10%
SMILES: O=C1O[C@H]([C@@H](O)CO)C(O)=C1O [vitamin C, ascorbic acid]

Solubility in Betaine:Glycerol 1:3 [1]: > 1 % wt
solubility ([1]; read-out: Solubility in Water): 1.6 µg/mL (≈ 3.62 µM)
SMILES: Nc1nc2ncc(CNc3ccc(C(=O)N[C@@H](CCC(=O)O)C(=O)O)cc3)nc2c(=O)[nH]1 [Folic Acid]
